# Results published in patent US20260207563A1, “UREA COMPOUNDS AS ACTIVATORS OF POTASSIUM CHANNELS KV7.2/7.3 USEFUL IN THE TREATMENT OF CNS AND PNS DISORDERS” (ANGELINI PHARMA S.P.A., priority 2022, published 2026).
# pEC50: −log10 of the molar value.
# Biological target: T1, heteromeric KV7.2/KV7.3 channels (KCNQ2, KCNQ3) (Homo sapiens, UniProt O43525+O43526)
# T1 construct: expressed in transfected cells; host or cells: CHO-K1
# Experiment: Automated patch-clamp (Sophion Qube 384) potency assay against KV7.2/KV7.3 channels
# Assay type: cell-based
# Conditions: CHO-K1/Kv7.2/Kv7.3 cells; for pEC50: EC50 from concentration-response of shift in Vhalf, 10 concentrations up to 30 μM, read-out: Kv7.2/7.3 EC50; for Kv7.2/7.3 ΔV1/2: maximal shift in the Vhalf from the top of the curve
# Excerpt: Assessment of In Vitro Potency Against KV7.2/KV7.3 Channels
# An automated patch-clamp assay on the Sophion Qube 384 was developed for potency testing to identify small molecule activators of heteromeric KV7.2/KV7.3 channels (KCNQ2, Uniprot ID 043526; KCNQ3, Uniprot 043525).
# The cell line used was a stably transfected CHO-K1 cell line with constitutive KV7.2/KV7.3 expression.
# CHO-K1/Kv7.2/Kv7.3 cells were maintained in the following culture media: • DMEM/F-12 with GlutaMAX™ (Gibco 31331-028), • 10% Fetal clone 2 serum (Perbio Science SH30066.03), • 1 mg/ml Geneticin™ selective antibiotic (G418, Invitrogen 1013027), and • 5 μg/ml BlasticidinS HCl (Invivogen Ant-bl-5).
# On the day of the experiment, cells were resuspended in serum free media, counted and diluted to a final concentration of 3.5×10^6 cells per ml of media.
# Cells were then placed onto the Sophion Qube 384 and rested for a minimum of 1 hour.
# The following solutions were used for recording: • extracellular solution (in mM): 145 NaCl, 4 KCl, 1 MgCl2, 2 CaCl2), 10 HEPES, 10 glucose, pH 7.4, 315-320 mOsm. • intracellular solution (in mM): 120 KCl, 5.74 CaCl2), 1.75 MgCl2, 10 EGTA, 10 HEPES, 5 Na2ATP, pH 7.2, adjusted to 315 mOsm with sucrose.
# After establishing the whole-cell configuration, cells were held at −80 mV throughout the experiment. A current-voltage (I-V) protocol stepping from −100 to +20 mV for 1 second was applied to measure Kv7.2/Kv7.3 currents, each step was followed by a 200 ms pulse to 0 mV to measure the tail currents. From the I-V protocol a Boltzmann fit was applied to generate activation curves. Data were sampled at 25 kHz and filtered at 5 kHz (Bessel). Data were produced using multihole QChips. The I-V protocol was applied several times to establish the response in control conditions (typically 0.3% DMSO) and in the presence of the test compound.
# Data were reviewed in Sophion Analyser version 6.5.2 (Sophion Bioscience) for recording quality and filters were applied to remove any failed wells. Leak subtraction was applied to all recordings. Data filters for multihole QChips were typically: seal resistance>4 MΩ, capacitance >20 pF, baseline VHalf between 0 to −40 mV, baseline holding current between −2 to 2 nA, baseline steady state current at 20 mV >4 nA unless otherwise stated.
# Analysis of Data for Assessment of Potency
# 10 concentrations of test compounds were applied to individual wells in quadruplicate to assess potency as a 1 in 3 dilution series from the maximal concentration of 30 μM. The average shift in the voltage for half activation (Vhalf) for each concentration was used to generate concentration-response curves fitted with a 4-parameter logistic model to estimate the EC50 from the point of inflection of the curve and the maximal shift in the Vhalf from the top of the curve.
# The lower the EC50 value, the higher the potency of the analyzed compound. The selectivity criteria is assigned on the basis of the maximal shift in the Vhalf at 30 μM. […] In Table 3, ND means that selectivity was not determined.
SMILES,pEC50,Kv7.2/7.3 ΔV1/2
O=C(NCc1ccnc(OCC(F)(F)F)n1)N[C@@H]1CCc2ccc(F)cc21 [Compound 167],4.99,20.68 mV
COc1ccc2c(c1)CCC[C@H]2NC(=O)NCc1ccnc(OCC(F)(F)F)c1 [Compound 177],5.64,54.8 mV
COc1ccc2c(c1)CCC[C@@H]2NC(=O)NCc1ccnc(OCC(F)(F)F)c1 [Compound 178],5.09,27.73 mV
O=C(NCc1ccnc(OCC(F)(F)F)n1)N[C@@H]1CCCc2ccccc21 [Compound 180],5.23,24.71 mV
COc1cccc2c1CCC[C@H]2NC(=O)NCc1ccnc(OCC(F)(F)F)c1 [Compound 183],5.60,43.65 mV
Cc1cccc2c1OCC[C@@H]2NC(=O)NCc1ccnc(OCC(F)(F)F)c1 [Compound 185],5.27,22.68 mV
O=C(NCc1ccnc(OCC(F)(F)F)c1)N[C@H]1COc2ccccc2C1 [Compound 187],5.63,21.99 mV
O=C(NCc1ccnc(OCC(F)(F)F)c1)N[C@H]1CCOc2cccc(F)c21 [Compound 189],5.57,32.95 mV
COc1cccc(N2CC[C@@H](NC(=O)NCc3ccnc(OCC(F)(F)F)c3)C2)c1 [Compound 194],5.59,29.55 mV
O=C(NCc1ccnc(OCC(F)(F)F)c1)N[C@@H]1CCO[C@@H](c2ccccc2)C1 [Compound 195],5.18,39.68 mV
O=C(NCc1ccnc(OCC(F)(F)F)c1)N[C@H]1CCO[C@@H]1c1ccccc1 [Compound 197],5.12,39.86 mV
CC1(C)C[C@H](NC(=O)NCc2ccnc(OCC(F)(F)F)c2)c2ccccc2O1 [Compound 200],5.60,25.04 mV
COc1ccccc1N1CC[C@@H](NC(=O)NCc2ccnc(OCC(F)(F)F)c2)C1 [Compound 202],5.36,26.02 mV
CO[C@@H]1CCOc2c(NC(=O)NCc3ccnc(OCC(F)(F)F)c3)cccc21 [Compound 203],5.54,20.92 mV
C[C@@H](Oc1cc(CNC(=O)N[C@@H]2CCOc3ccccc32)ncn1)C(F)(F)F [Compound 205],5.15,40.29 mV
C[C@@H](Oc1cc(CNC(=O)N[C@@H]2CCOc3ccc(F)cc32)ncn1)C(F)(F)F [Compound 206],5.17,33.98 mV
C[C@@H](Oc1cc(CNC(=O)N[C@@H]2COc3ccccc32)ncn1)C(F)(F)F [Compound 207],4.99,23.90 mV
C[C@@H](Oc1cc(CNC(=O)N[C@@H]2COc3ccc(F)cc32)ncn1)C(F)(F)F [Compound 208],5.09,23.96 mV
COc1ccc2c(c1)[C@H](NC(=O)NCc1cc(O[C@H](C)C(F)(F)F)ncn1)CCO2 [Compound 209],5.01,37.49 mV
COc1ccc([C@@H](C)NC(=O)NCc2ccnc(OCC(F)(F)F)c2)cc1 [Compound 210],5.34,27.31 mV
O=C(NCc1ccc(OC(F)(F)F)cc1)NCc1ccnc(OCC(F)(F)F)c1 [Compound 211],5.50,22.62 mV
O=C(NCc1ccnc(OCC(F)(F)F)c1)N[C@@H]1CCN(CC(F)(F)F)C1 [Compound 214],5.05,30.24 mV
COc1ccc([C@H](CF)NC(=O)NCc2ccnc(OCC(F)(F)F)c2)cc1 [Compound 215],5.38,24.17 mV

# More lines, now with the values ahead:
pEC50,Kv7.2/7.3 ΔV1/2,SMILES
5.65,37.25 mV,Cc1cccc2c1[C@H](NC(=O)NCc1ccnc(OCC(F)(F)F)c1)CC2 [Compound 168]
5.85,24.08 mV,Cc1cccc2c1[C@@H](NC(=O)NCc1ccnc(OCC(F)(F)F)c1)CC2 [Compound 169]
5.81,42.82 mV,O=C(NCc1ccnc(OCC(F)(F)F)c1)N[C@@H]1CCOc2ccc(F)cc21 [Compound 170]
5.91,48.06 mV,O=C(NCc1ccnc(OCC(F)(F)F)n1)N[C@@H]1CCc2ccccc21 [Compound 171]
5.70,55.13 mV,O=C(NCc1ccnc(OCC(F)(F)F)c1)N[C@@H]1CCc2sccc21 [Compound 172]
6.48,31.15 mV,O=C(NCc1ccnc(OCC(F)(F)F)c1)N[C@H]1CSc2ccccc2C1 [Compound 173]
5.91,47.65 mV,O=C(NCc1ccnc(OCC(F)(F)F)c1)N[C@@H]1CCSc2ccccc21 [Compound 174]
5.91,20.52 mV,O=C(NCc1ccnc(OCC(F)(F)F)c1)N[C@H]1CCSc2ccccc21 [Compound 175]
5.96,40.89 mV,O=C(NCc1ccnc(OCC(F)(F)F)c1)N[C@@H]1CCc2c(F)cc(F)cc21 [Compound 176]
5.70,33.61 mV,O=C(NCc1ccnc(OCC(F)(F)F)c1)N[C@@H]1CCOc2c(F)cccc21 [Compound 179]
6.15,24.16 mV,O=C(NCc1ccnc(OCC(F)(F)F)c1)N[C@H]1CCOc2c(F)cccc21 [Compound 181]
5.81,37.46 mV,COc1ccc2c(c1)[C@H](NC(=O)NCc1ccnc(OCC(F)(F)F)c1)CCO2 [Compound 182]
5.91,42.17 mV,Cc1cccc2c1OCC[C@H]2NC(=O)NCc1ccnc(OCC(F)(F)F)c1 [Compound 184]
6.54,34.07 mV,O=C(NCc1ccnc(OCC(F)(F)F)c1)N[C@@H]1COc2ccccc2C1 [Compound 186]
6.33,28.3 mV,O=C(NCc1ccnc(OCC(F)(F)F)c1)N[C@@H]1CCC[C@H]1c1ccc(F)cc1 [Compound 188]
6.09,20.58 mV,COc1ccc2c(c1)C[C@H](NC(=O)NCc1ccnc(OCC(F)(F)F)c1)CC2 [Compound 190]
5.93,46.54 mV,O=C(NCc1ccnc(OCC(F)(F)F)c1)N[C@@H]1CCCc2cc(F)ccc21 [Compound 191]
5.77,47.09 mV,CC1(C)C[C@@H](NC(=O)NCc2ccnc(OCC(F)(F)F)c2)c2ccccc21 [Compound 192]
6.28,23.15 mV,CC1(C)C[C@H](NC(=O)NCc2ccnc(OCC(F)(F)F)c2)c2ccccc21 [Compound 193]
5.81,56.75 mV,O=C(NCc1ccnc(OCC(F)(F)F)c1)N[C@@H]1CC[C@H](c2ccccc2)C1 [Compound 196]
5.86,76.04 mV,O=C(NCc1ccnc(OCC(F)(F)F)c1)N[C@H]1CC[C@@H](c2ccccc2F)C1 [Compound 198]
5.74,36.36 mV,O=C(NCc1ccnc(OCC(F)(F)F)c1)N[C@@H]1COc2c(F)cccc21 [Compound 199]
5.65,27.95 mV,O=C(NCc1ccnc(OCC(F)(F)F)c1)NC[C@H]1COc2ccccc2C1 [Compound 201]
6.01,38.78 mV,O=C(NCc1ccnc(OCC(F)(F)F)c1)N[C@@H]1CCOc2cc(F)ccc21 [Compound 204]
5.83,41.94 mV,O=C(NCc1ccnc(OCC(F)(F)F)c1)N[C@@H](C1CC1)C(F)(F)F [Compound 212]
6.17,31.5 mV,O=C(NCc1ccnc(OCC(F)(F)F)c1)N[C@H](C1CC1)C(F)(F)F [Compound 213]
